EC50 data for 32 compounds are collected here from patent US20190084939A1, “ANALOGS OF FEXARAMINE AND METHODS OF MAKING AND USING” (Salk Institute for Biological Studies, priority 2014, published 2019).

In this assay the target is T1, Human FXR full length (Homo sapiens, UniProt Q96RI1).
T1 construct: Human FXR full length and RXR full length was obtained from Ronald Evans' laboratory; expressed in transfected cells; host or cells: CV-1 cells
T1 sequence (Q96RI1 1-476 isoform Q96RI1-1): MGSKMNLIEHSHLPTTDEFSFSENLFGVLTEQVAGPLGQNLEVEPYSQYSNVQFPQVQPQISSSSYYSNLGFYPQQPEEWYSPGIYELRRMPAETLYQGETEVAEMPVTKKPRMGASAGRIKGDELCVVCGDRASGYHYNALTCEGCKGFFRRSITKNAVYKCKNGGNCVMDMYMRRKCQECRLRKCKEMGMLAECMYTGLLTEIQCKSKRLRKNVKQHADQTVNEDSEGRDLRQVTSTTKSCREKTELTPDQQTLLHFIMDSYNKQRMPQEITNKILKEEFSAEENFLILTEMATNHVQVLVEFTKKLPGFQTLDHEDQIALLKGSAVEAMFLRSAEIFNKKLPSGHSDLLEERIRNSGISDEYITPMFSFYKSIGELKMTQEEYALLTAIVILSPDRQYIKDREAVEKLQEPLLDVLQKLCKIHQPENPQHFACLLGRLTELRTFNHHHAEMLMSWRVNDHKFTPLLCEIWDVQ
T1 sequence (P19793 1-462 partner): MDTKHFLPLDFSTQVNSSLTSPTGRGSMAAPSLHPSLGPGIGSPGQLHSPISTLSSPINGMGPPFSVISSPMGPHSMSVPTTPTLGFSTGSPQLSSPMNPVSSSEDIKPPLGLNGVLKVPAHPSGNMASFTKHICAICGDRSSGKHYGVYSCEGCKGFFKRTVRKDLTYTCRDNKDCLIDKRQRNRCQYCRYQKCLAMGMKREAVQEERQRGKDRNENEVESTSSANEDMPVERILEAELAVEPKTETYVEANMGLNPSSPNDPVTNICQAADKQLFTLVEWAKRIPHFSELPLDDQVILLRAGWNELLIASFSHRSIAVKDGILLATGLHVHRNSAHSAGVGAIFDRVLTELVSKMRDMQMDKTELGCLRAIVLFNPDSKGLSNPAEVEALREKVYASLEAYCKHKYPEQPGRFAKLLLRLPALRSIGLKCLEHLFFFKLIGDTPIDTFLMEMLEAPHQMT
Put plainly: FXR activity screen, luciferase reporter in transfected CV-1 cells. It is filed as cell-based. How it is done: CV-1 cells were grown in DMEM+10% charcoal stripped FCS. Cells were seeded into 384-well plates the day before transfection to give a confluency of 50-80% at transfection. A total of […] DNA containing 0.32 micrograms pCMX-hFXRfl, 0.32 micrograms pCMX-hRXRfl, 0.1 micrograms pCMXβGal, 0.08 micrograms pGLFXRE reporter and 0.02 micrograms pCMX empty vector was transfected per well using FuGene transfection reagent according to the manufacturer's instructions (Roche). Cells were allowed to express protein for 48 hours followed by addition of compound.
Human FXR full length and RXR full length was obtained from Ronald Evans' laboratory and PCR amplification of the hFXR cDNA and the hRXR cDNA was performed. The amplified cDNAs was cloned into the vector pCMX generating the plasmids pCMX-hFXRfl and pCMX-hRXRfl. Ensuing fusions were verified by sequencing. The pCMXMH2004 luciferase reporter contains multiple copies of the GAL4 DNA response element under a minimal eukaryotic promoter (Hollenberg and Evans, 1988). pCMXβGal was generated in the Evans laboratory, Salk Institute.
All compounds were dissolved in DMSO and diluted 1:1000 upon addition to the cells. Compounds were tested in quadruple in concentrations ranging from 0.001 to 100 μM. Cells were treated with compound for 24 hours followed by luciferase assay. Each compound was tested in at least two separate experiments.
Medium including test compound was aspirated and washed with PBS. 50 μL PBS including 1 mM Mg^2+ and Ca^2+ were then added to each well. The luciferase assay was performed using the LucLite kit according to the manufacturer's instructions (Packard Instruments). Light emission was quantified by counting on a Perkin Elmer Envision reader. To measure […] activity 25 μL supernatant from each transfection lysate was transferred to a new 384 microplate. Beta-galactosidase assays were performed in the microwell plates using a kit from Promega and read in a Perkin Elmer Envision reader. The beta-galactosidase data were used to normalize (transfection efficiency, cell growth etc.) the luciferase data.
The activity of a compound is calculated as fold induction compared to an untreated sample. For each compound the efficacy (maximal activity) is given as a relative activity compared to Fexaramine, a FXR agonist. The EC50 is the concentration giving 50% of maximal observed activity. EC50 values were calculated via non-linear regression using GraphPad PRISM (GraphPad Software, San Diego, Calif.).

Setting [1] is: first round, CV-1 cells, 24 hours, read-out: 1st RND EC50.
Where [2] appears, read: second round, CV-1 cells, 24 hours, read-out: 2nd RND EC50.
Setting [3] is: retest, read-out: EC50 (retested).

The structures appear in SMILES notation. Like-named read-outs stand apart in the source and are kept apart here.

The term EC50 denotes the concentration at which the effect is half-maximal.

With `COC(=O)/C=C/c1cccc(N(Cc2cccc3ccc(N(C)C)c(F)c23)C(=O)C2CCCCC2)c1` [NSSK00002], the EC50 runs as follows: under setting [1], 96.8 nM; under setting [2], 65.9 nM.

As to `COC(=O)/C=C/c1cccc(N(Cc2ccc(-c3ccc4c(cnn4C)c3)cc2)C(=O)c2ccccc2)c1` [NSSK00056], the EC50 is, setting by setting: under setting [1], 752 nM; under setting [2], 720 nM.

Regarding `COC(=O)/C=C/c1cccc(N(Cc2ccc(-c3ccc4c(cnn4C)c3)cc2)C(=O)[C@H]2C[C@H]3CC[C@@H]2C3)c1` [NSSK00017], the EC50 by setting is: under setting [1], 756 nM; under setting [2], 500 nM.

On to `[2H]C(c1ccc(-c2ccc3c(cnn3C)c2)cc1)N(C(=O)C1CCCCC1)c1cccc(/C=C/C(=O)OC)c1` (centres unmarked) [NSSK00033], for which the half-maximal effective concentration (EC50) is, setting by setting: under setting [1], 169 nM; under setting [2], 254 nM.

Regarding `[2H]C(c1ccc(-c2ccc3c(cnn3C)c2)cc1Cl)N(C(=O)[C@@H]1C[C@@H]2CC[C@H]1C2)c1cc(F)cc(/C=C/C(=O)OC)c1` (some centres unmarked) [NSSK00094], the half-maximal effective concentration (EC50) reads like this: under setting [1], 786 nM; under setting [2], 865 nM.

For `COC(=O)/C=C/c1cccc(N(Cc2ccc(-c3ccc(N(C)C)cc3)cc2F)C(=O)c2ccccc2)c1` [NSSK00054], the EC50 reads like this: under setting [1], 509 nM; under setting [2], 457 nM.

For `[2H]C(c1ccc(-c2ccc3c(cnn3C)c2)cc1F)N(C(=O)C1CCCCC1)c1cncc(/C=C/C(=O)OC)c1` (centres unmarked) [NSSK00012], the EC50 is 1200 nM under setting [1] and 1200 nM under setting [2].

For `COC(=O)/C=C/c1cc(F)cc(N(Cc2ccc(-c3ccc(N(C)C)cc3)cc2Cl)C(=O)C2CCCCC2)c1` [NSSK00117], the half-maximal effective concentration (EC50) is 983 nM under setting [1] and 1300 nM under setting [2].

Consider `COC(=O)/C=C/c1cncc(N(Cc2ccc(-c3ccc(N(C)C)cc3)cc2F)C(=O)C2CCCCC2)c1` [NSSK00078], for which the half-maximal effective concentration (EC50) came to 698 nM under setting [1] and 673 nM under setting [2].

Consider `COC(=O)/C=C/c1cccc(N(Cc2cccc3cc4cnn(C)c4c(F)c23)C(=O)C2C[C@H]3CC[C@@H]2C3)c1` (some centres unmarked) [NSSK00019], for which the half-maximal effective concentration (EC50) runs as follows: under setting [1], 923 nM; under setting [2], 554 nM.

`COC(=O)/C=C/c1cncc(N(Cc2ccc(-c3ccc4c(cnn4C)c3)cc2F)C(=O)c2ccccc2)c1` [NSSK00061]: the EC50 reads like this: under setting [1], 9600 nM; under setting [2], 10200 nM.

Take `COC(=O)/C=C/c1cccc(N(Cc2cccc3cc4cnn(C)c4c(F)c23)C(=O)C2CCN(C)CC2)c1` [NSSK00036]: the concentration for a half-maximal effect (EC50) under setting [1] was 18600 nM and the 50% effective concentration (EC50) under setting [2] was 4900 nM.

For `[2H]C(c1ccc(-c2ccc3c(cnn3C)c2)cc1F)N(C(=O)C1CCCCC1)c1cc(F)cc(/C=C/C(=O)OC)c1` (centres unmarked) [NSSK00011], the 50% effective concentration (EC50) is, setting by setting: under setting [1], 289 nM; under setting [2], 379 nM.

In the case of `[2H]C(c1ccc(-c2ccc3c(cnn3C)c2)cc1F)N(C(=O)C1CCCCC1)c1cccc(/C=C/C(=O)OC)c1` (centres unmarked) [NSSK00089, methyl (E)-3-(3-(N-((2-fluoro-4-(1-methyl-1H-indazol-5-yl)phenyl)methyl-d)cyclohexanecarboxamido)phenyl)acrylate], the EC50 is, setting by setting: under setting [1], 383 nM; under setting [3], 366 nM; under setting [2], 406 nM.

Regarding `[2H]C(c1ccc(-c2ccc3c(cnn3C)c2)cc1F)N(C(=O)c1ccccc1)c1cccc(/C=C/C(=O)OC)c1` (centres unmarked) [NSSK00093], the EC50 runs as follows: under setting [1], 459 nM; under setting [2], 511 nM.

Consider `COC(=O)/C=C/c1cccc(N(Cc2ccc(-c3ccc4c(cnn4C)c3)cc2Cl)C(=O)C2CCCCC2)c1` [NSSK00091], for which the EC50 is, setting by setting: under setting [1], 801 nM; under setting [2], 628 nM.

Regarding `[2H]C(c1ccc(-c2ccc3c(cnn3C)c2)cc1)N(C(=O)[C@@H]1C[C@@H]2CC[C@H]1C2)c1cc(F)cc(/C=C/C(=O)OC)c1` (some centres unmarked) [NSSK00113], the concentration for a half-maximal effect (EC50) is, setting by setting: under setting [1], 652 nM; under setting [2], 2700 nM.

With `[2H]C(c1ccc(-c2ccc(N(C)C)cc2)cc1F)N(C(=O)c1ccccc1)c1cncc(/C=C/C(=O)OC)c1` (centres unmarked) [NSSK00116], the EC50 under setting [2] was 8600 nM.

On to `COC(=O)/C=C/c1cccc(N(Cc2ccc(-c3ccc4c(cnn4C)c3)cc2)C(=O)C2CCN(C)CC2)c1` [NSSK00035], for which the 50% effective concentration (EC50) under setting [1] came out at 3300 nM and the half-maximal effective concentration (EC50) under setting [2] was 4490 nM.

`[2H]C(c1ccc(-c2ccc(N(C)C)cc2)cc1Cl)N(C(=O)[C@@H]1C[C@@H]2CC[C@H]1C2)c1cccc(/C=C/C(=O)OC)c1` (some centres unmarked) [NSSK00045]: the concentration giving a half-maximal response (EC50) is 334 nM under setting [1] and 334 nM under setting [2].

On to `COC(=O)/C=C/c1cccc(N(Cc2ccc(-c3ccc4c(cnn4C)c3)cc2Cl)C(=O)c2ccccc2)c1` [NSSK00098], for which the concentration for a half-maximal effect (EC50) by setting is: under setting [1], 655 nM; under setting [2], 670 nM.

For `[2H]C(c1ccc(-c2ccc(N(C)C)cc2)cc1F)N(C(=O)[C@@H]1C[C@@H]2CC[C@H]1C2)c1cncc(/C=C/C(=O)OC)c1` (some centres unmarked) [NSSK00029], the half-maximal effective concentration (EC50) under setting [1] is 605 nM and the 50% effective concentration (EC50) under setting [2] is 510 nM.

Regarding `COC(=O)/C=C/c1cccc(N(Cc2ccc(-c3ccc4c(cnn4C)c3)cc2)C(=O)C2CCCCC2)c1` [NSSK00004], the EC50 amounted to 237 nM under setting [1] and 266 nM under setting [2].

Regarding `[2H]C(c1ccc(-c2ccc3c(cnn3C)c2)cc1Cl)N(C(=O)c1ccccc1)c1cncc(/C=C/C(=O)OC)c1` (centres unmarked) [NSSK00101], the EC50 amounted to 5900 nM under setting [1] and 15100 nM under setting [2].

With `[2H]C(c1ccc(-c2ccc3c(cnn3C)c2)cc1F)N(C(=O)c1ccccc1)c1cccc(/C=C/C(=O)OC)c1` (centres unmarked) [NSSK00038], the EC50 under setting [1] came out at 1370 nM and the concentration giving a half-maximal response (EC50) under setting [2] worked out at 1900 nM.

With `[2H]C(c1ccc(-c2ccc3c(cnn3C)c2)cc1Cl)N(C(=O)C1CCCCC1)c1cccc(/C=C/C(=O)OC)c1` (centres unmarked) [NSSK00014], the EC50 under setting [1] stood at 346 nM and the EC50 under setting [2] stood at 475 nM.

Consider `[2H]C(c1ccc(-c2ccc(N(C)C)cc2)cc1Cl)N(C(=O)C1CCCCC1)c1cccc(/C=C/C(=O)OC)c1` (centres unmarked) [NSSK00031], for which the half-maximal effective concentration (EC50) runs as follows: under setting [1], 366 nM; under setting [2], 249 nM.

For the compound `COC(=O)/C=C/c1cccc(N(Cc2ccc(-c3ccc(N(C)C)cc3)cc2Cl)C(=O)C2CCCCC2)c1` [NSSK00080], the concentration for a half-maximal effect (EC50) is, setting by setting: under setting [1], 623 nM; under setting [2], 610 nM.

Turning to `[2H]C(c1ccc(-c2ccc3c(cnn3C)c2)cc1F)N(C(=O)[C@@H]1C[C@@H]2CC[C@H]1C2)c1cccc(/C=C/C(=O)OC)c1` (some centres unmarked) [NSSK00070], the EC50 is 1700 nM under setting [1] and 1700 nM under setting [2].

Take `[2H]C(c1ccc(-c2ccc(N(C)C)cc2)cc1Cl)N(C(=O)c1ccccc1)c1cc(F)cc(/C=C/C(=O)OC)c1` (centres unmarked) [NSSK00050]: the half-maximal effective concentration (EC50) is, setting by setting: under setting [1], 1700 nM; under setting [2], 2100 nM.

Consider `[2H]C(c1ccc(-c2ccc(N(C)C)cc2)cc1F)N(C(=O)[C@@H]1C[C@@H]2CC[C@H]1C2)c1cc(F)cc(/C=C/C(=O)OC)c1` (stereo partly drawn) [NSSK00110, methyl (E)-3-(3-((1S,2R,4R)—N-((4′-(dimethylamino)-3-fluoro-[1,1′-biphenyl]-4-yl)methyl-d)bicyclo[2.2.1]heptane-2-carboxamido)-5-fluorophenyl)acrylate], for which the 50% effective concentration (EC50) under setting [1] amounted to 60.1 nM, the EC50 under setting [3] amounted to 46 nM and the EC50 under setting [2] turned out to be 174 nM.

`[2H]C(c1ccc(-c2ccc(N(C)C)cc2)cc1F)N(C(=O)C1CCCCC1)c1cc(F)cc(/C=C/C(=O)OC)c1` (centres unmarked) [NSSK00109]: the half-maximal effective concentration (EC50) by setting is: under setting [1], 190 nM; under setting [2], 316 nM.
